# Laboratory results from paper PMC11484942, “Rumicidins are a family of mammalian host-defense peptides plugging the 70S ribosome exit tunnel” (Nature Communications, 2024).
# Legend:
# [1] = test system: E. coli 1057 WT; assay: microbe, parasite or virus in culture; type: cell-based, Escherichia coli; conditions: MHB + 0.9% NaCl
# Experimental: Minimum inhibitory concentrations (MIC) were determined by broth microdilution assay based on Clinical and Laboratory Standards Institute (CLSI) guidelines using BSA in the growth medium to minimize AMP nonspecific adsorption[49]. Bacterial test cultures were grown in the Mueller-Hinton broth (MHB, Sigma) at 37 °C to mid-log phase and then diluted with the 2× MH medium supplemented with 1.8% NaCl (or without salt) so that to reach a final cell concentration of 10^6 CFU/mL. 50 µL of the obtained bacterial suspension were added to aliquots of 50 µL of the peptide solutions serially diluted with sterilized 0.1% bovine serum albumin (BSA) in 96-well flat-bottom polystyrene microplates (Eppendorf #0030730011). […] To verify MIC values, the respiratory activity of the bacteria was determined. Briefly, 5 µL of 0.5 mg/mL resazurin (Sigma) was added to the wells after 24 h (or after 48 h for M. smegmatis) of incubation, and the plate was incubated for additional 3 h. In some cases, MICs were determined in the Lysogeny Broth (LB) or Middlebrook 7H9 medium. The reduction of resazurin to resorufin was recorded. […] The results were expressed as the median values determined based on at least three independent experiments performed in triplicate.
# [2] = test system: macrophages MΦ1 (THP-1 derived); assay: Cytokine response, multiplex xMAP; type: cell-based, human; conditions: 2 µM peptide, 24 h
# Experimental: (§1) The acute monocytic leukemia THP-1 cell line (ATCC TIB-202) was cultured in the complete RPMI 1640 medium (Invitrogen) containing 10% FBS, 1× antibiotic-antimycotic solution (Invitrogen), and 0.05 mM β-mercaptoethanol, in the CO2-incubator (5% CO2, 37 °C). THP-1 cells were differentiated into proinflammatory macrophages (MΦ1) according to the previously reported protocol. Primary peripheral blood mononuclear cells (PBMC) collected from a healthy donor were purchased from ATCC (PCS-800-011), thawed, and seeded into a 96-well plate one day prior to the experiment at a density of 2 × 10^5 cells/well. Two different cell subpopulations (monocytes and T-/B-/NK-lymphocytes) were isolated from PBMC based on their adherence ability. Macrophages MΦ1 were washed out and seeded into 96-well plates at a density of 10^5 cells/well one day prior to the experiment. The next day, medium in each well was replaced by a fresh complete RPMI 1640 medium with or without 2 μM of a tested peptide (rumicidin-1 or LL-37). Cell cultures were kept in a CO2-incubator (5% CO2, 37 °C) for 24 h. Culture supernatants were collected 24 h later and stored at −70 °C degrees less than one week prior to the assessment of analytes. 26 analytes were measured at a protein level by multiplex xMAP technology using the MILLIPLEX MAP Human Cytokine/Chemokine Magnetic Bead Immunology Panel kit (HCYTOMAG-60K-27, Merck): eotaxin-1/CCL11, TGFα, GM-CSF, IFNα2, IFNγ, IL-10, IL-12p40, IL-12p70, IL-15, sCD40L, IL-17A, IL-1RA, IL-1α, IL-9, IL-1β, IL-2, IL-3, IL-4, IL-5, IL-6, IL-7, IL-8/CXCL8, IP-10/CXCL10, RANTES/CCL5, TNFα, TNFβ. Multiplex-based assay read-out was performed using the MAGPIX system (Merck) with the xPONENT 4.2 software (Merck) in accordance with the manufacturer’s instruction with overnight incubation of the samples with primary antibodies. The final analysis was carried out with the MILLIPLEX Analyst v5.1 software (Merck). Measurements were performed twice for each sample. The release of the analytes in control and experimental samples were compared by unpaired two-sample t-test using GraphPad Prism v.8.0.1. The p values ≤ 0.05 were considered significant.
# [3] = test system: Monocytes; assay: Cytokine response, multiplex xMAP; type: cell-based, human; conditions: 2 µM peptide, 24 h
# Experimental: as §1
# [4] = test system: T-/B-/NK-lymphocytes; assay: Cytokine response, multiplex xMAP; type: cell-based, human; conditions: 2 µM peptide, 24 h
# Experimental: as §1
# [5] = test system: PBMC; assay: Cytokine response, multiplex xMAP; type: cell-based, human; conditions: 2 µM peptide, 24 h
# Experimental: as §1
structure (smiles),measurement,setting,value
CC[C@H](C)[C@H](NC(=O)[C@H](CCCCN)NC(=O)[C@H](CCC(=O)O)NC(=O)[C@H](CCCCN)NC(=O)[C@H](CO)NC(=O)[C@H](CCCCN)NC(=O)[C@H](CCCNC(=N)N)NC(=O)[C@H](Cc1ccccc1)NC(=O)[C@H](Cc1ccccc1)NC(=O)[C@H](CC(=O)O)NC(=O)CNC(=O)[C@H](CC(C)C)NC(=O)[C@@H](N)CC(C)C)C(=O)NCC(=O)N[C@@H](CCCCN)C(=O)N[C@@H](CCC(=O)O)C(=O)N[C@@H](Cc1ccccc1)C(=O)N[C@@H](CCCCN)C(=O)N[C@@H](CCCNC(=N)N)C(=O)N[C@H](C(=O)N[C@H](C(=O)N[C@@H](CCC(N)=O)C(=O)N[C@@H](CCCNC(=N)N)C(=O)N[C@H](C(=O)N[C@@H](CCCCN)C(=O)N[C@@H](CC(=O)O)C(=O)N[C@@H](Cc1ccccc1)C(=O)N[C@@H](CC(C)C)C(=O)N[C@@H](CCCNC(=N)N)C(=O)N[C@@H](CC(N)=O)C(=O)N[C@@H](CC(C)C)C(=O)N[C@H](C(=O)N1CCC[C@H]1C(=O)N[C@@H](CCCNC(=N)N)C(=O)N[C@H](C(=O)N[C@@H](CCC(=O)O)C(=O)N[C@@H](CO)C(=O)O)[C@@H](C)O)C(C)C)[C@@H](C)CC)C(C)C)[C@@H](C)CC [LL-37],MIC,[1],2 µM
same,GM-CSF,[2],"1,32 pg/ml"
same,IFNa2,[2],"4,35 pg/ml"
same,IFNg,[2],< 1.31 pg/mL
same,IL-1RA,[2],"20,52 pg/ml"
same,IL-1a,[2],< 1.13 pg/mL
same,IL-1b,[2],"10,63 pg/ml"
same,IL-2,[2],< 2.73 pg/mL
same,IL-3,[2],< 3.02 pg/mL
same,IL-4,[2],"38,61 pg/ml"
same,IL-5,[2],< 2.74 pg/mL
same,IL-6,[2],< 2.42 pg/mL
same,IL-7,[2],< 2.06 pg/mL
same,IL-8,[2],1188 pg/mL
same,IL-9,[2],< 3.08 pg/mL
same,IL-10,[2],"6,13 pg/ml"
same,IL-12p40,[2],< 3.69 pg/mL
same,IL-12p70,[2],"0,58 pg/ml"
same,IL-15,[2],"2,42 pg/ml"
same,IL-17A,[2],< 0.94 pg/mL
same,IP-10,[2],"282,01 pg/ml"
same,RANTES,[2],"715,62 pg/ml"
same,TGF-a,[2],< 2.64 pg/mL
same,TNFa,[2],"9,49 pg/ml"
same,TNFb,[2],< 2.85 pg/mL
same,sCD40L,[2],"3,22 pg/ml"
same,GM-CSF,[3],"3,08 pg/ml"
same,IFNa2,[3],"34,74 pg/ml"
same,IFNg,[3],"38,2 pg/ml"
same,IL-1RA,[3],"168,96 pg/ml"
same,IL-1a,[3],< 1.13 pg/mL
same,IL-1b,[3],< 2.88 pg/mL
same,IL-2,[3],< 2.73 pg/mL
same,IL-3,[3],"3,38 pg/ml"
same,IL-5,[3],< 2.74 pg/mL
same,IL-6,[3],< 2.42 pg/mL
same,IL-7,[3],"8,54 pg/ml"
same,IL-8,[3],"755,68 pg/ml"
same,IL-9,[3],< 3.08 pg/mL
same,IL-10,[3],"4,1 pg/ml"
same,IL-12p40,[3],"17,59 pg/ml"
same,IL-12p70,[3],"5,7 pg/ml"
same,IL-15,[3],"4,8 pg/ml"
same,IP-10,[3],"897,33 pg/ml"
same,RANTES,[3],"312,51 pg/ml"
same,TGF-a,[3],< 2.64 pg/mL
same,TNFa,[3],"6,47 pg/ml"
same,TNFb,[3],< 2.85 pg/mL
same,sCD40L,[3],"20,8 pg/ml"
same,GM-CSF,[4],"0,66 pg/ml"
same,IFNa2,[4],"7,02 pg/ml"
same,IFNg,[4],"1,93 pg/ml"
same,IL-1RA,[4],"6,49 pg/ml"
same,IL-1a,[4],< 1.13 pg/mL
same,IL-1b,[4],< 2.88 pg/mL
same,IL-2,[4],< 2.73 pg/mL
same,IL-3,[4],< 3.02 pg/mL
same,IL-4,[4],"51,58 pg/ml"
same,IL-5,[4],< 2.74 pg/mL
same,IL-6,[4],< 2.42 pg/mL
same,IL-7,[4],< 2.06 pg/mL
same,IL-8,[4],"411,17 pg/ml"
same,IL-9,[4],< 3.08 pg/mL
same,IL-10,[4],< 1.47 pg/mL
same,IL-12p40,[4],< 3.69 pg/mL
same,IL-12p70,[4],"1,03 pg/ml"
same,IL-15,[4],< 2.08 pg/mL
same,IL-17A,[4],< 0.94 pg/mL
same,IP-10,[4],"120,56 pg/ml"
same,RANTES,[4],"889,61 pg/ml"
same,TGF-a,[4],< 2.64 pg/mL
same,TNFa,[4],"5,23 pg/ml"
same,TNFb,[4],< 2.85 pg/mL
same,sCD40L,[4],"3,22 pg/ml"
same,GM-CSF,[5],"0,66 pg/ml"
same,IFNa2,[5],"3,72 pg/ml"
same,IFNg,[5],< 1.31 pg/mL
same,IL-1RA,[5],"62,83 pg/ml"
same,IL-1a,[5],< 1.13 pg/mL
same,IL-1b,[5],< 2.88 pg/mL
same,IL-2,[5],< 2.73 pg/mL
same,IL-3,[5],< 3.02 pg/mL
same,IL-4,[5],"38,61 pg/ml"
same,IL-5,[5],< 2.74 pg/mL
same,IL-6,[5],< 2.42 pg/mL
same,IL-7,[5],< 2.06 pg/mL
same,IL-8,[5],1591 pg/mL
same,IL-9,[5],< 3.08 pg/mL
same,IL-10,[5],< 1.47 pg/mL
same,IL-12p40,[5],< 3.69 pg/mL
same,IL-12p70,[5],"0,29 pg/ml"
same,IL-15,[5],< 2.08 pg/mL
same,IL-17A,[5],< 0.94 pg/mL
same,IP-10,[5],2236 pg/mL
same,RANTES,[5],"262,49 pg/ml"
same,TGF-a,[5],< 2.64 pg/mL
same,TNFa,[5],"15,91 pg/ml"
same,TNFb,[5],< 2.85 pg/mL
same,sCD40L,[5],"2,84 pg/ml"
same,Eotaxin,[5]; supernatant,"3,21 pg/ml"
